One compound from patent US6706767B2, “Therapeutics for chemokine mediated diseases” (Chemokine Therapeutics Corporation, priority 2000, dated 2004) can be followed below.

The test system of experiment [1] is neutrophils. The experiment is described as follows: fMLP induced neutrophil calcium level. As to conditions: FIG. 6, after 15 seconds stimulation. The format is cell-based.
The target of another experiment is T1, CXCR2 (Homo sapiens, UniProt P25025).
T1 sequence (P25025 1-360): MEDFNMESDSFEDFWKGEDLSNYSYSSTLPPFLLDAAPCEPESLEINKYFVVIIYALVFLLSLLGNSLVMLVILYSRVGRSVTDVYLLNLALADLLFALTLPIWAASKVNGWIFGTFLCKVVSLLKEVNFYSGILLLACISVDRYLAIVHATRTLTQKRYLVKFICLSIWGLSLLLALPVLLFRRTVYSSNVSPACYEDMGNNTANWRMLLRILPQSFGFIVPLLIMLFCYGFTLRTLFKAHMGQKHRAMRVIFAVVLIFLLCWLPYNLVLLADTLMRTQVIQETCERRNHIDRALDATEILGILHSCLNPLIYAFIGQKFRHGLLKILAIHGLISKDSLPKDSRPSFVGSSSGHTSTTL
The experiment is described as follows: Inhibition of IL-8 binding to CXCR2. As to conditions: FIG. 8.

For another experiment, the target named is T2, CXCR1 (Homo sapiens, UniProt P25024).
T2 sequence (P25024 1-350): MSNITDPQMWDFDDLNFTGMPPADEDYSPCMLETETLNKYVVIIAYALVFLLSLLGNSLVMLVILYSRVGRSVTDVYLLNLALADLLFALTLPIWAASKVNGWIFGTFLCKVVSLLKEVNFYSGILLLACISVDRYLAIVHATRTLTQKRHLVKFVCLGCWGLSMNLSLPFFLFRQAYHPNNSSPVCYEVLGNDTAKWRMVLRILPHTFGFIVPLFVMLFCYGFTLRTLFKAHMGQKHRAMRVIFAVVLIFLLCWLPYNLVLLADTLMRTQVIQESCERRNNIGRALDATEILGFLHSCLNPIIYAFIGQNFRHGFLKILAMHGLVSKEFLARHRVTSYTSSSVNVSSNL
The experiment is described as follows: Inhibition of IL-8 binding to CXCR1. As to conditions: FIG. 8.

In the next experiment the test system is EAE mouse model. The experiment is described as follows: EAE mouse model of Multiple Sclerosis, clinical scores. The class given is in vivo. As to conditions: 1 mg/kg/day for 14 days, compared to control saline injection. From the text: Experimental autoimmune encephalomyelitis (EAE) is a CD4^+ Th1-mediated inflammatory demyelinating disease of the central nervous system (CNS) that serves as a model for multiple sclerosis. It has previously been disclosed that monocyte chemotactic protein-one (MCP-1) regulates acute and relapsing autoimmune encephalomyelitis, and that MCP-1 production in the central nervous system is correlated with relapsing EAE development. In this example, the EAE mouse model for MS is used, in which the disease is induced with Bordetella pertussis toxin (Claude C. A. et. al., (1975) Journal of Immunology 114(5): 1537-1540 and Hosseimi, H. et. al., (2000) Neurology 54 (7): A166, An abstract presented in April 2000 on “Inhibition of proteosome prevents clinical signs in an experimental model of Multiple Sclerosis”). A dose of 1 mg/kg/day in a volume of 100 μl saline was given to animals for 14 days, and individual animals were observed daily and graded accordingly to their clinical severity as follows: grade 0, no abnormality; grade 1, limp tail; grade 2, limp tail and partial hind limb weakness; grade 3, complete hind limb paralysis; grade 4, complete hind limb paralysis and fore limb weakness; grade 5, death.

A further experiment has as its target MCP-1 receptor (CCR-2) (Homo sapiens, UniProt P41597). The experiment is described as follows: Inhibition of I125-labeled MCP-1 binding to the MCP-1 receptor (CCR-2). As to conditions: I125 labeled MCP-1 as competitor; FIG. 1. On the procedure:
A dose response of phenanthrene-9,10-dione at different concentration in comparison to MCP-1.
This example discloses the ability of tricyclic compounds of the invention, such as phenanthrene-9,10-dione (compound 1), for inhibiting binding to the MCP-1 receptor (CCR-2). The binding studies were conducted using I^125 labeled MCP-1 as competitor. […] In FIG. 1, the results of competition studies are plotted using a standard scatchard plot analysis.

Experiment [2] deals with neutrophils. Description: fMLP induced neutrophil activation (chemiluminescence). The format is cell-based. As to conditions: 0.3 μg/ml and 1 μg/ml. From the text: (§1) In accordance with this aspect of the invention, tricyclic comounds such as phenanthrene-9,10-dione or corresponding salts may be used for the treatment of inflammatory diseases related to gout and arthritis.

Another experiment concerns human neutrophils. The experiment is described as follows: Inhibition of IL-8 induced [Ca2+]i mobilization in human neutrophils. The class given is cell-based. As to conditions: 30 minutes incubation, 10 nM IL-8. On the procedure: Freshly isolated neutrophils loaded with Fura-2,AM were incubated with phenanthrene-9,10-dione for 30 minutes prior to induction of [Ca^2+]i mobilization by 10 nM IL-8. Values represent the increase in mobilization over basal levels (wavelength averaging at approximately 176 nM) and are the mean +/− one S.D. of n=3 experiments.

In the next experiment the test system is THP-1 cells. Description: Inhibition of MCP-1 induced [Ca2+]i mobilization in Fura-2,AM loaded THP-1 cells. The format is cell-based. As to conditions: Homo sapiens, 0.5 h, 30 min incubation. As to the method:
(§2) Fura-2,AM loaded THP-1 cells were incubated with M163 for 30 min prior to induction of [Ca^2+]i mobilization by 20 nM MCP-1. Cells were also evaluated in the presence of fMLP (1 mM)/cytochalasin B (0.5 mM) or M163 (600 ng/ml) as positive and negative controls respectively. […] The values represent the mean +/− one S.D.

Experiment [3] deals with neutrophils. The experiment is described as follows: CPPD crystal induced neutrophil activation (chemiluminescence). The class given is cell-based. As to conditions: 0.3 μg/ml and 1 μg/ml.
Text: as §1

Another experiment has as its system THP-1 cells and T-cells. The experiment is described as follows: Cytoplasmic calcium rise induced by the compound itself. The class given is cell-based. As to conditions: analogous to native MCP-1. On the procedure:
as §2

Read-outs that look alike come from different tables or passages of the source.

In general, IC50 refers to the point on the concentration scale where inhibition reaches its midpoint.

Chain of MCP-1 receptor (CCR-2) (P41597 whole entry, species assumed): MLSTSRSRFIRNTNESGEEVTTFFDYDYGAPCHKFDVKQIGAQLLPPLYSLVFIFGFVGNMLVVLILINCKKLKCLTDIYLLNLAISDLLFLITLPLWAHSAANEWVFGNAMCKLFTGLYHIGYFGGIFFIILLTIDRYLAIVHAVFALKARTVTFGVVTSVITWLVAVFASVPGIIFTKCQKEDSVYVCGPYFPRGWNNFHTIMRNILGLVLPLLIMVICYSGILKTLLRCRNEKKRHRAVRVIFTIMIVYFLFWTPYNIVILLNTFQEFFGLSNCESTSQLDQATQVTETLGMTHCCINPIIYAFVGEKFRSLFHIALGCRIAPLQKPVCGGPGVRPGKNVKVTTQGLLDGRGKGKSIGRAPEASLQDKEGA

As to `O=C1C(=O)c2ccccc2-c2ccccc21` [phenanthrene-9,10-dione], the “inhibition of intracellular calcium ion release” value in the experiment on neutrophils [1] is given as “effective inhibitor of intracellular calcium ion release”. Besides, the “inhibitory effect on the binding of IL-8 to CXCR2” value at CXCR2 was “inhibitory effect”. Moreover, on CXCR1, the “inhibitory effect on the binding of IL-8 to CXCR1” value is reported as “inhibitory effect”. In addition, in the experiment on EAE mouse model, the “effect on clinical scores” value is “beneficial effect on the clinical scores”. Also, the “inhibitory effect on the binding of MCP-1 to CCR-2” value on MCP-1 receptor (CCR-2) is given as “inhibitory effect”. The “inhibition of fMLP induced neutrophil activation” value in the experiment on neutrophils [2] is on record as “strong inhibition”. Also, in the experiment with human neutrophils (3 μM), the “suppression of calcium level (IL-8 induced [Ca2+]i mobilization)” value is recorded as “about 63%”. The IC50 in the experiment with human neutrophils (Neutrophil, 0.5 h) came out at 3000 nM; in the experiment on THP-1 cells (20 nM MCP-1, read-out: IC50, MCP-1 associated induction of [Ca2+]i mobilization), 0.25 µg/mL; in the experiment on THP-1 cells (20 nM MCP-1, value in parentheses, read-out: IC50, MCP-1 associated induction of [Ca2+]i mobilization) it was 120 nM. Further, the “inhibition of CPPD crystal induced neutrophil activation” value in the experiment with neutrophils [3] is reported as “strong inhibition”. Besides, in the experiment with THP-1 cells and T-cells, the “effect on cytoplasmic calcium concentration” value was “induced a rapid, transient rise in cytoplasmic calcium concentration”.
